The source of these data is paper PMC11590367, “Characterization of novel small molecule inhibitors of estrogen receptor-activation function 2 (ER-AF2)” (Breast Cancer Research : BCR, 2024).

The assay has as its system ER transcriptional activity in T47D-KBluc cells. As to the kind of experiment: Luciferase transcriptional assay. The note with it: ER transcription, luciferase reporter, 1 nM E2, 24 h treatment, ± SD of 3 biological replicates. In kind it is cell-based. On the procedure: T47D-KBluc cells or PC3m-luc cells were starved for 72 h and then seeded into 96-well plates at 20,000 or 5,000 cells/well, respectively. […] One day post-treatment, the media was removed, and cells were lysed with 65 µl of 1x passive lysis buffer (Promega #E1910). Following two freeze-thaw cycles, 20 µl of lysate were transferred to a white, 96-well flat bottom plate (Corning Life Sciences Cat#3912). 50 µl of luciferase reagent (Promega. Luciferase Assay System E1500) was added to each well, and luminescence was measured using the TECAN M200 Pro plate reader. E2 (1 nM), 4-hydroxytamoxifen (OHT) (4 nM), and DMSO (0.2%) were used as controls for this assay. […] E2 alone represented 100% transcriptional activation, while the 0.2% DMSO control represented 0% transcriptional activity. OHT was used as a positive control for an active compound.

The molecule `Cc1cccn2c(CNCc3cccc(N(C)C)n3)cnc12` [VPC-260724] showed an IC50 of 5.75 ± 1.13 µM. 5.7 µM corresponded to half-maximal inhibition (24 h) (IC50).
